“And” between values parts separate entries of the source, which are not always exact repeats. Equal entries are not always repeated.
Test system: A498 complex spheroid viability
Assay: Anticancer human tumor A498 cell line growth inhibition;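 note: spheroids exposed to agents for seven days before readout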;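 for viability, T/C: 100% = DMSO vehicle-treated spheroids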
Details: for viability, T/C: stronger effect = lower value
In short: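 Complex spheroids of tumor cells with HUVEC and human MSCs, exposed to iadademstat combined with other agents. Each agent tested in half-log steps from near clinical Cmax (else 10 microM top), DMSO ≤0.25%.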

[1] = curve of first compound, second compound 0.1 µM
[2] = curve of first compound, second compound 0.316 µM
[3] = curve of first compound, second compound 1 µM
[4] = curve of first compound, second compound 3.16 µM
[5] = curve of first compound, second compound 10 µM
[6] = second compound 0.1 µM, first compound 0.0316 µM
[7] = second compound 0.1 µM, first compound 0.1 µM
[8] = second compound 0.1 µM, first compound 0.316 µM
[9] = second compound 0.1 µM, first compound 1 µM
[10] = second compound 0.316 µM, first compound 0.0316 µM
[11] = second compound 0.316 µM, first compound 0.1 µM
[12] = second compound 0.316 µM, first compound 0.316 µM
[13] = second compound 0.316 µM, first compound 1 µM
[14] = second compound 1 µM, first compound 0.0316 µM
[15] = second compound 1 µM, first compound 0.1 µM
[16] = second compound 1 µM, first compound 0.316 µM
[17] = second compound 1 µM, first compound 1 µM
[18] = second compound 3.16 µM, first compound 0.0316 µM
[19] = second compound 3.16 µM, first compound 0.1 µM
[20] = second compound 3.16 µM, first compound 0.316 µM
[21] = second compound 3.16 µM, first compound 1 µM
[22] = second compound 10 µM, first compound 0.0316 µM
[23] = second compound 10 µM, first compound 0.1 µM
[24] = second compound 10 µM, first compound 0.316 µM
[25] = second compound 10 µM, first compound 1 µM
[26] = second compound 0.1 µM, first compound 0.00949 µM
[27] = second compound 0.1 µM, first compound 0.03 µM
[28] = second compound 0.1 µM, first compound 0.0949 µM
[29] = second compound 0.1 µM, first compound 0.3 µM
[30] = second compound 0.316 µM, first compound 0.00949 µM
[31] = second compound 0.316 µM, first compound 0.03 µM
[32] = second compound 0.316 µM, first compound 0.0949 µM
[33] = second compound 0.316 µM, first compound 0.3 µM
[34] = second compound 1 µM, first compound 0.00949 µM
[35] = second compound 1 µM, first compound 0.03 µM
[36] = second compound 1 µM, first compound 0.0949 µM
[37] = second compound 1 µM, first compound 0.3 µM
[38] = second compound 3.16 µM, first compound 0.00949 µM
[39] = second compound 3.16 µM, first compound 0.03 µM
[40] = second compound 3.16 µM, first compound 0.0949 µM
[41] = second compound 3.16 µM, first compound 0.3 µM
[42] = second compound 10 µM, first compound 0.00949 µM
[43] = second compound 10 µM, first compound 0.03 µM
[44] = second compound 10 µM, first compound 0.0949 µM
[45] = second compound 10 µM, first compound 0.3 µM

## CC1(C)CCC(CN2CCN(c3ccc(C(=O)NS(=O)(=O)c4ccc(NCC5CCOCC5)c([N+](=O)[O-])c4)c(Oc4cnc5[nH]ccc5c4)c3)CC2)=C(c2ccc(Cl)cc2)C1 + NC1CC1c1ccc(-c2cccc(O)c2)cc1
[1]
  IC50: 4510 nM
[2]
  IC50: 4160 nM
[3]
  IC50: 4080 nM
[4]
  IC50: 3700 nM
[5]
  IC50: 3840 nM
[6]
  viability, T/C: 109%
[7]
  viability, T/C: 106%
[8]
  viability, T/C: 102%
[9]
  viability, T/C: 93.1%
Second compound 0.1 µM, first compound 3.16 µM
  viability, T/C: 69.6%
Second compound 0.1 µM, first compound 10 µM
  viability, T/C: 7.58%
[10]
  viability, T/C: 108%
[11]
  viability, T/C: 112%
[12]
  viability, T/C: 96.6%
[13]
  viability, T/C: 88.2%
Second compound 0.316 µM, first compound 3.16 µM
  viability, T/C: 66.7%
Second compound 0.316 µM, first compound 10 µM
  viability, T/C: 5.66%
[14]
  viability, T/C: 103%
[15]
  viability, T/C: 99.6%
[16]
  viability, T/C: 98.9%
[17]
  viability, T/C: 84.3%
Second compound 1 µM, first compound 3.16 µM
  viability, T/C: 64.1%
Second compound 1 µM, first compound 10 µM
  viability, T/C: 6.2%
[18]
  viability, T/C: 100%
[19]
  viability, T/C: 91.4%
[20]
  viability, T/C: 98.9%
[21]
  viability, T/C: 86.1%
Second compound 3.16 µM, first compound 3.16 µM
  viability, T/C: 57.2%
Second compound 3.16 µM, first compound 10 µM
  viability, T/C: 5.72%
[22]
  viability, T/C: 91.9%
[23]
  viability, T/C: 91.6%
[24]
  viability, T/C: 86.6%
[25]
  viability, T/C: 77.8%
Second compound 10 µM, first compound 3.16 µM
  viability, T/C: 59.9%
Second compound 10 µM, first compound 10 µM
  viability, T/C: 7.06%

## CC1COCCN1c1cc(-c2ccnn2C)c2ccnc(-c3ccn[nH]3)c2n1 (stereo not drawn)
Compound 0.00316 µM
  viability, T/C: 103% and 100%
Compound 0.01 µM
  viability, T/C: 82% and 81.8%
Compound 0.0316 µM
  viability, T/C: 36.7% and 37.3%
Compound 0.1 µM
  viability, T/C: 18.8% and 22.5%
Compound 0.316 µM
  viability, T/C: 14.9% and 16.1%
Compound 1 µM
  viability, T/C: 11.2% and 10.8%
Curve of compound
  IC50: 22.8 nM and 23.4 nM

## COc1cc(C2c3cc4c(cc3C(OC3OC5COC(C)OC5C(O)C3O)C3COC(=O)C23)OCO4)cc(OC)c1O (stereo not drawn)
Compound 0.00949 µM
  viability, T/C: 89.7% and 87%
Compound 0.03 µM
  viability, T/C: 92.9% and 75.5%
Compound 0.0949 µM
  viability, T/C: 82.8% and 70.3%
Compound 0.3 µM
  viability, T/C: 78.1% and 74.6%
Compound 0.949 µM
  viability, T/C: 68.8% and 57%
Compound 3 µM
  viability, T/C: 56.8% and 48.7%
Curve of compound
  IC50: > 3000 nM and 2640 nM

## Nc1ccn(C2OC(CO)C(O)C2(F)F)c(=O)n1 (stereo not drawn) + NC1CCC(NC2CC2c2ccccc2)CC1
[1]
  IC50: < 0.949 nM
[2]
  IC50: < 0.949 nM
[3]
  IC50: < 0.949 nM
[4]
  IC50: < 0.949 nM
[5]
  IC50: < 0.949 nM
Second compound 0.1 µM, first compound 0.000949 µM
  viability, T/C: 25.7%
Second compound 0.1 µM, first compound 0.003 µM
  viability, T/C: 32.9%
[26]
  viability, T/C: 41.2%
[27]
  viability, T/C: 38%
[28]
  viability, T/C: 36.8%
[29]
  viability, T/C: 29.9%
Second compound 0.316 µM, first compound 0.000949 µM
  viability, T/C: 24.3%
Second compound 0.316 µM, first compound 0.003 µM
  viability, T/C: 33.9%
[30]
  viability, T/C: 44.2%
[31]
  viability, T/C: 43.3%
[32]
  viability, T/C: 36.8%
[33]
  viability, T/C: 31.1%
Second compound 1 µM, first compound 0.000949 µM
  viability, T/C: 21.7%
Second compound 1 µM, first compound 0.003 µM
  viability, T/C: 32.8%
[34]
  viability, T/C: 43.2%
[35]
  viability, T/C: 40.8%
[36]
  viability, T/C: 29.9%
[37]
  viability, T/C: 29.3%
Second compound 3.16 µM, first compound 0.000949 µM
  viability, T/C: 23.8%
Second compound 3.16 µM, first compound 0.003 µM
  viability, T/C: 30.5%
[38]
  viability, T/C: 38.2%
[39]
  viability, T/C: 38.2%
[40]
  viability, T/C: 30.8%
[41]
  viability, T/C: 30.3%
Second compound 10 µM, first compound 0.000949 µM
  viability, T/C: 22.3%
Second compound 10 µM, first compound 0.003 µM
  viability, T/C: 26.7%
[42]
  viability, T/C: 39.8%
[43]
  viability, T/C: 38.5%
[44]
  viability, T/C: 27.9%
[45]
  viability, T/C: 25.5%

## CC1COCCN1c1cc(C2(S(C)(=N)=O)CC2)nc(-c2ccnc3[nH]ccc23)n1 (stereo not drawn)
Compound 0.0316 µM
  viability, T/C: 98.7% and 99.7%
Compound 0.1 µM
  viability, T/C: 98.2% and 97.2%
Compound 0.316 µM
  viability, T/C: 69.6% and 68.1%
Compound 1 µM
  viability, T/C: 34.2% and 28.7%
Compound 3.16 µM
  viability, T/C: 19% and 19.6%
Compound 10 µM
  viability, T/C: 13.1% and 12%
Curve of compound
  IC50: 605 nM and 543 nM

## Nc1ccccc1NC(=O)c1ccc(CNC(=O)OCc2cccnc2)cc1 + NC1CCC(NC2CC2c2ccccc2)CC1
[1]
  IC50: 203 nM
[2]
  IC50: 222 nM
[3]
  IC50: 215 nM
[4]
  IC50: 177 nM
[5]
  IC50: 214 nM
[26]
  viability, T/C: 80.6%
[27]
  viability, T/C: 76%
[28]
  viability, T/C: 65.8%
[29]
  viability, T/C: 42.1%
Second compound 0.1 µM, first compound 0.949 µM
  viability, T/C: 15.4%
Second compound 0.1 µM, first compound 3 µM
  viability, T/C: 1.76%
[30]
  viability, T/C: 86.7%
[31]
  viability, T/C: 83.8%
[32]
  viability, T/C: 66.4%
[33]
  viability, T/C: 44.6%
Second compound 0.316 µM, first compound 0.949 µM
  viability, T/C: 17%
Second compound 0.316 µM, first compound 3 µM
  viability, T/C: 1.4%
[34]
  viability, T/C: 76.8%
[35]
  viability, T/C: 79.6%
[36]
  viability, T/C: 68.4%
[37]
  viability, T/C: 40.9%
Second compound 1 µM, first compound 0.949 µM
  viability, T/C: 17.2%
Second compound 1 µM, first compound 3 µM
  viability, T/C: 1.13%
[38]
  viability, T/C: 73.6%
[39]
  viability, T/C: 67.3%
[40]
  viability, T/C: 59.8%
[41]
  viability, T/C: 42.7%
Second compound 3.16 µM, first compound 0.949 µM
  viability, T/C: 16%
Second compound 3.16 µM, first compound 3 µM
  viability, T/C: 0.8%
[42]
  viability, T/C: 62%
[43]
  viability, T/C: 59.3%
[44]
  viability, T/C: 57.4%
[45]
  viability, T/C: 47%
Second compound 10 µM, first compound 0.949 µM
  viability, T/C: 16.3%
Second compound 10 µM, first compound 3 µM
  viability, T/C: 0.91%

## NS(=O)(=O)OCC1CC(n2ccc3c(NC4CCc5ccccc54)ncnc32)CC1O (stereo not drawn)
Compound 0.00949 µM
  viability, T/C: 81% and 90.7%
Compound 0.03 µM
  viability, T/C: 57.2% and 60.5%
Compound 0.0949 µM
  viability, T/C: 27.1% and 30.7%
Compound 0.3 µM
  viability, T/C: 18.4% and 21.2%
Compound 0.949 µM
  viability, T/C: 12.2% and 15.6%
Compound 3 µM
  viability, T/C: 9.37% and 11.7%
Curve of compound
  IC50: 39.2 nM and 45.3 nM

## CC1COCCN1c1cc(-c2ccnn2C)c2ccnc(-c3ccn[nH]3)c2n1 (stereo not drawn) + NC1CCC(NC2CC2c2ccccc2)CC1
[1]
  IC50: 21.9 nM
[2]
  IC50: 24.7 nM
[3]
  IC50: 24.5 nM
[4]
  IC50: 22.8 nM
[5]
  IC50: 14.1 nM
Second compound 0.1 µM, first compound 0.00316 µM
  viability, T/C: 83.9%
Second compound 0.1 µM, first compound 0.01 µM
  viability, T/C: 76.2%
[6]
  viability, T/C: 37.5%
[7]
  viability, T/C: 16.3%
[8]
  viability, T/C: 14%
[9]
  viability, T/C: 9.97%
Second compound 0.316 µM, first compound 0.00316 µM
  viability, T/C: 89.7%
Second compound 0.316 µM, first compound 0.01 µM
  viability, T/C: 79.6%
[10]
  viability, T/C: 41.3%
[11]
  viability, T/C: 19.1%
[12]
  viability, T/C: 14.3%
[13]
  viability, T/C: 10.5%
Second compound 1 µM, first compound 0.00316 µM
  viability, T/C: 84.8%
Second compound 1 µM, first compound 0.01 µM
  viability, T/C: 74.4%
[14]
  viability, T/C: 42.8%
[15]
  viability, T/C: 19.3%
[16]
  viability, T/C: 15%
[17]
  viability, T/C: 9.26%
Second compound 3.16 µM, first compound 0.00316 µM
  viability, T/C: 81.5%
Second compound 3.16 µM, first compound 0.01 µM
  viability, T/C: 71.2%
[18]
  viability, T/C: 41.4%
[19]
  viability, T/C: 19.4%
[20]
  viability, T/C: 14.8%
[21]
  viability, T/C: 9.59%
Second compound 10 µM, first compound 0.00316 µM
  viability, T/C: 71.5%
Second compound 10 µM, first compound 0.01 µM
  viability, T/C: 58.9%
[22]
  viability, T/C: 30.7%
[23]
  viability, T/C: 22.7%
[24]
  viability, T/C: 13.9%
[25]
  viability, T/C: 9.55%

Source: PubChem BioAssay AID1918947 (Molecular Pharmacology Branch, DTP, NCI, 2023)
